Results: patent publication US20140051729A1, “COMPOSITIONS AND METHODS FOR TREATING DEGENERATIVE MUSCLE CONDITIONS” (University of Washington, priority 2011, published 2014)

How the values were obtained:
[1] = system: plasma creatine kinase (CK) activity; test: Plasma creatine kinase assay in mdx mice; assay type: in vivo, mouse; settings: 5-month-old mdx males, day 4 post CTX, vs vehicle
Procedure: The effects of THI in the dystrophic mdx mouse model were studied. […] THI was administered intraperitoneally (IP) to three groups of mdx mice. Right tibialis anterior (TA) and quadriceps muscles were uninjured, while left counterparts were injured using CTX, a well characterized model of acute injury where initial muscle destruction is followed by a rapid myogenic response. The mdx mice were injected with THI, or PBS as a vehicle control, immediately following injury with CTX 5 times during a 3-day period (FIG. 3a). In the first group (N=6, 5-month-old males) the mdx mice were sacrificed at day 4 to analyze the efficacy of the administration of THI for increasing S1P levels in spleen, CTX injured quadriceps, and uninjured quadriceps. The effects of THI administration on the plasma creatine kinase (CK) activity level was also measured.
Mdx mouse plasma samples were diluted 1:50 and total creatine kinsase activity was measured by an enzymatic rate method using a Beckman Coulter instrument. Relative levels were then normalized to body weight.

[2] = biological target: T1, SPL (Mus musculus, UniProt Q8R0X7); settings: Schwab et al., Science 2005; cited from earlier work
T1 construct: host or cells: mice (in vivo)
T1 sequence (Q8R0X7 1-568): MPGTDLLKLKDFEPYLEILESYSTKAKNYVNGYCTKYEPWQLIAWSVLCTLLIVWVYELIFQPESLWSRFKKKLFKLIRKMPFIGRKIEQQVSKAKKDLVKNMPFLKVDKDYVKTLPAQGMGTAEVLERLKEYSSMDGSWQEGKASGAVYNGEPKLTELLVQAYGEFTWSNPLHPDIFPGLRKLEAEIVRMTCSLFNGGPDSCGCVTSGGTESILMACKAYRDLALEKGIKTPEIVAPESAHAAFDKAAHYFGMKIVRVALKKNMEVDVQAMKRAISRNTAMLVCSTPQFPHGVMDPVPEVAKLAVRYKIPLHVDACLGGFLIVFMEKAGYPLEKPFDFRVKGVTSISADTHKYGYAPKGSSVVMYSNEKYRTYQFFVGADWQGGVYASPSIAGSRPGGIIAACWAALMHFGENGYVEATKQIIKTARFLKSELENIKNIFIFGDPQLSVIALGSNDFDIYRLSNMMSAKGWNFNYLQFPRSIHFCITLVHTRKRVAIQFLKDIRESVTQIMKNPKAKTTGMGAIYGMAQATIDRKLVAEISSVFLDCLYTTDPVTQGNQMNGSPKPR

[3] = system: dystrophic flies (w; +/+; Dys^det1/Dys^det1); test: Myofibril analysis of muscle wasting in dystrophic flies fed S1P promoting agents; assay type: in vivo, Drosophila; settings: 217 μM in feed, three feeding cycles, 10-day old flies, three days after last feeding
Procedure: The effect of THI, a derivative of THI ((E)-1-(4-((1R,2S,3R)-1,2,3,4-tetrahydroxybutyl)-1H-imidazol-2-yl)-ethanone oxime) (“THI-oxime”), and a sphingosine analog (FTY720) on muscle wasting in dystrophic Drosopila flies was observed. Before feeding, 4 day old dystrophic flies (genotype: w; +/+; Dys^det1/Dys^det1) were placed in empty vials and starved for 6 hours. The flies were then provided access to one of a solution of 0.05 mg/mL (217 μM) 2-Acetyl-4(5)-tetrahydroxybutyl Imidazole (THI), or 217 μM FTY720, or 217 μM THI-oxime, in 5% light corn syrup in water for 16-18 hrs. After feeding, the flies were placed in new yeasted vials for 6-7 hrs. Flies were then transferred to empty vials with access to a 217 μM solution of THI, FTY720 or THI-oxime in a 5% light corn syrup in water for 16-18 hrs. This feeding cycle was repeated for a third time. After feeding for three cycles, the flies were placed in new yeasted vials. The 7-day old flies that had been administered the THI-oxime were analyzed immediately after the last feeding. The flies that has been administered THI and FTY720 were analyzed as 10-day old flies, three days after the last feeding with THI and FTY720.
Myofibril immunochemistry analysis was performed as disclosed herein. For each treatment group, 5 flies were analyzed, and 3 muscles per fly and 2 myofibrils per muscle were analyzed. Two tailed Student's t test was used to evaluate significance.
Flies were dipped in 95% EtOH and then dissected in 1×PBS (pH 7.4). Heads and abdomens were removed, and the thoraxes opened. Samples were stained using a modified ovary staining protocol 3. Samples were then fixed in 5% paraformaldehyde (Electron Microscopy Sciences) for 1 hour, rinsed in PBT (PBS/0.2% Triton X-100 v/v) 4 times, and then blocked for 1 hour in PBTB (PBT, 0.4% BSA w/v, 5% Normal Goat Serum v/v) at room temperature. […] For each genotype, 4-5 flies were analyzed, and 6-7 muscles per fly were analyzed.

CC(=O)c1ncc([C@@H](O)[C@H](O)[C@H](O)CO)[nH]1 [THI, 1-[5-[(1R,2S,3R)-1,2,3,4-tetrahydroxybutyl]-1H-imidazol-2-yl]-ethanone]
plasma CK levels [1]: reduced
SPL activity when administered to mice [2]: inhibits SPL activity
wild-type myofibrils [3]: approximately 67%
